# Results taken from patent publication US12030896B2, “PIKfyve inhibitors” (Mayo Foundation for Medical Education and Research, priority 2018, dated 2024).
# Tested on: U251
# Experiment: U251 Vacuolization Assay (24h)
# Assay type: cell-based
# Details: Homo sapiens, U-251
# Procedure: As used herein the term “EC50 (μM)” refers to the μM concentration of a compound that is required for 50% activity in a vacuolization assay.
# Example A—U251 Vacuolization Assay Data (24h) for Compounds of Examples 8-56
row,EC50,Compound
1,1 to 10 µM,"Cc1ccc(Nc2nc(NCc3c[nH]c4ccccc34)nc(N3CCOCC3)n2)cc1 [Example 8, N-(1H-Indol-3-ylmethyl)-6-morpholin-4-yl-N′-p-tolyl-[1,3,5]triazine-2,4-diamine]"
2,≤ 1 µM,"Clc1ccc(Nc2nc(N/N=C/c3c[nH]c4ccccc34)nc(N3CCOCC3)n2)cc1 [Example 11, (E)-4-(2-((1h-indol-3-yl)methylene)hydrazinyl)-n-(4-chlorophenyl)-6-morpholino-1,3,5-triazin-2-amine]"
3,≤ 1 µM,"COc1ccc(Nc2nc(N/N=C/c3c[nH]c4ccccc34)nc(N3CCOCC3)n2)cc1 [Example 12, {4-[N′-(1H-Indol-3-ylmethylene)-hydrazino]-6-morpholin-4-yl-[1,3,5]triazin-2-yl}-(4-methoxy-phenyl)-amine]"
4,> 50 µM,"Cc1ccc(Nc2nc(N/N=C/c3c[nH]c4ccccc34)nc(N(CCO)CCO)n2)cc1 [Example 14, 2-((2-Hydroxy-ethyl)-{4-[N′-(1H-indol-3-ylmethylene)-hydrazino]-6-p-tolylamino-[1,3,5]triazin-2-yl}-amino)-ethanol]"
5,> 50 µM,"Cc1ccc(Nc2nc(N/N=C/c3c[nH]c4ccccc34)nc(N3CCCCC3)n2)cc1 [Example 15, {4-[N′-(1H-Indol-3-ylmethylene)-hydrazino]-6-piperidin-1-yl-[1,3,5]triazin-2-yl}-p-tolyl-amine]"
6,> 50 µM,"Cc1ccc(Nc2nc(N/N=C/c3c[nH]c4ccccc34)nc(N3CCCC3)n2)cc1 [Example 16, {4-[N′-(1H-Indol-3-ylmethylene)-hydrazino]-6-pyrrolidin-1-yl-[1,3,5]triazin-2-yl}-p-tolyl-amine]"
7,> 50 µM,"Cc1ccc(Nc2nc(N/N=C/c3c[nH]c4ccccc34)nc(N3CCN(C)CC3)n2)cc1 [Example 17, [4-[N′-(1H-Indol-3-ylmethylene)-hydrazino]-6-(4-methyl-piperazin-1-yl)-[1,3,5]triazin-2-yl]-p-tolyl-amine]"
8,> 50 µM,"Cc1ccc(Nc2nc(N/N=C/c3c[nH]c4ccccc34)nc(N3CCNCC3)n2)cc1 [Example 18, {4-[N′-(1H-Indol-3-ylmethylene)-hydrazino]-6-piperazin-1-yl-[1,3,5]triazin-2-yl}-p-tolyl-amine]"
9,≤ 1 µM,"Cc1ccccc1Nc1nc(N/N=C/c2c[nH]c3ccccc23)nc(N2CCOCC2)n1 [Example 19, {4-[N′-(1H-Indol-3-ylmethylene)-hydrazino]-6-morpholin-4-yl-[1,3,5]triazin-2-yl}-o-tolyl-amine]"
10,≤ 1 µM,"FC(F)(F)c1ccc(Nc2nc(N/N=C/c3c[nH]c4ccccc34)nc(N3CCOCC3)n2)cc1 [Example 20, (E)-4-(2-((1h-indol-3-yl)methylene)hydrazinyl)-6-morpholino-n-(4-(trifluoromethyl)phenyl)-1,3,5-triazin-2-amine]"
11,≤ 1 µM,"Brc1ccc(Nc2nc(N/N=C/c3c[nH]c4ccccc34)nc(N3CCOCC3)n2)cc1 [Example 21, (E)-4-(2-((1h-indol-3-yl)methylene)hydrazinyl)-n-(4-bromophenyl)-6-morpholino-1,3,5-triazin-2-amine]"
12,≤ 1 µM,"N#Cc1ccc(Nc2nc(N/N=C/c3c[nH]c4ccccc34)nc(N3CCOCC3)n2)cc1 [Example 22, (E)-4-((4-(2-((1H-indol-3-yl)methylene)hydrazinyl)-6-morpholino-1,3,5-triazin-2-yl)amino)benzonitrile]"
13,1 to 10 µM,"Cc1ccc(Nc2nc(N/N=C\c3cccnc3)nc(N3CCOCC3)n2)cc1 [Example 23, [4-Morpholin-4-yl-6-(N′-pyridin-3-ylmethylene-hydrazino)-[1,3,5]triazin-2-yl]-p-tolyl-amine]"
14,10 to 50 µM,"Cc1ccc(Nc2nc(N/N=C\c3cc[nH]c3)nc(N3CCOCC3)n2)cc1 [Example 24, {4-Morpholin-4-yl-6-[N′-(1H-pyrrol-3-ylmethylene)-hydrazino]-[1,3,5]triazin-2-yl}-p-tolyl-amine]"
15,≤ 1 µM,"Clc1cccc(Nc2nc(N/N=C/c3c[nH]c4ccccc34)nc(N3CCOCC3)n2)c1 [Example 25, (3-Chloro-phenyl)-{4-[N′-(1H-indol-3-ylmethylene)-hydrazino]-6-morpholin-4-yl-[1,3,5]triazin-2-yl}-amine]"
16,≤ 1 µM,"O=[N+]([O-])c1ccc(Nc2nc(N/N=C/c3c[nH]c4ccccc34)nc(N3CCOCC3)n2)cc1 [Example 26, (E)-4-(2-((1H-indol-3-yl)methylene)hydrazinyl)-6-morpholino-N-(4-nitrophenyl)-1,3,5-triazin-2-amine]"
17,≤ 1 µM,"Nc1ccc(Nc2nc(N/N=C/c3c[nH]c4ccccc34)nc(N3CCOCC3)n2)cc1 [Example 27, N1-(4-(2-((1h-indol-3-yl)methylene)hydrazinyl)-6-morpholino-1,3,5-triazin-2-yl)benzene-1,4-diamine]"
18,≤ 1 µM,"CC(=O)Nc1ccc(Nc2nc(N/N=C/c3c[nH]c4ccccc34)nc(N3CCOCC3)n2)cc1 [Example 28, (E)-N-(4-((4-(2-((1H-indol-3-yl)methylene)hydrazinyl)-6-morpholino-1,3,5-triazin-2-yl)amino)phenyl)acetamide]"
19,> 50 µM,"COCCN(CCOC)c1nc(N/N=C/c2c[nH]c3ccccc23)nc(Nc2ccc(C)cc2)n1 [Example 29, (E)-6-(2-((1H-Indol-3-yl)methylene)hydrazinyl)-N2,N2-bis(2-methoxyethyl)-N4-(p-tolyl)-1,3,5-triazine-2,4-diamine]"
20,> 50 µM,"Cc1ccc(Nc2nc(N/N=C/c3c[nH]c4ccccc34)nc(N(C)C)n2)cc1 [Example 30, (E)-6-(2-((1H-Indol-3-yl)methylene)hydrazinyl)-N2,N2-dimethyl-N4-(p-tolyl)-1,3,5-triazine-2,4-diamine]"
21,1 to 10 µM,"Cc1ccc(Nc2nc(N/N=C\c3csc4ccccc34)nc(N3CCOCC3)n2)cc1 [Example 31, [4-(N′-Benzo[b]thiophen-3-ylmethylene-hydrazino)-6-morpholin-4-yl-[1,3,5]triazin-2-yl]-p-tolyl-amine]"
22,1 to 10 µM,"Cc1ccc(Nc2nc(N/N=C/c3ccncc3)nc(N3CCOCC3)n2)cc1 [Example 32, [4-Morpholin-4-yl-6-(N′-pyridin-4-ylmethylene-hydrazino)-[1,3,5]triazin-2-yl]-p-tolyl-amine]"
23,≤ 1 µM,"Cc1ccc(Nc2nc(N/N=C/c3ccccc3)nc(N3CCOCC3)n2)cc1 [Example 33, [4-(N′-Benzylidene-hydrazino)-6-morpholin-4-yl-[1,3,5]triazin-2-yl]-p-tolyl-amine]"
24,> 50 µM,"CCN(C)c1nc(N/N=C/c2c[nH]c3ccccc23)nc(Nc2ccc(C)cc2)n1 [Example 35, (E)-6-(2-((1H-Indol-3-yl)methylene)hydrazinyl)-N2-ethyl-N2-methyl-N4-(p-tolyl)-1,3,5-triazine-2,4-diamine]"
25,> 50 µM,"Cc1ccc(Nc2nc(N/N=C/c3c[nH]c4ccccc34)nc(N3CCC3)n2)cc1 [Example 36, (E)-4-(2-((1H-Indol-3-yl)methylene)hydrazinyl)-6-(azetidin-1-yl)-N-(p-tolyl)-1,3,5-triazin-2-amine]"
26,> 50 µM,"Cc1ccc(Nc2nc(N/N=C/c3c[nH]c4ccccc34)nc(N3CCC(O)CC3)n2)cc1 [Example 37, (E)-1-(4-(2-((1H-Indol-3-yl)methylene)hydrazinyl)-6-(p-tolylamino)-1,3,5-triazin-2-yl)piperidin-4-ol]"
27,> 50 µM,"Cc1ccc(Nc2nc(N/N=C/c3c[nH]c4ccccc34)nc(N3CCSCC3)n2)cc1 [Example 38, (E)-4-(2-((1H-Indol-3-yl)methylene)hydrazinyl)-6-thiomorpholino-N-(p-tolyl)-1,3,5-triazin-2-amine]"
28,≤ 1 µM,"Clc1ccccc1Nc1nc(N/N=C/c2c[nH]c3ccccc23)nc(N2CCOCC2)n1 [Example 42, (2-Chloro-phenyl)-{4-[N′-(1H-indol-3-ylmethylene)-hydrazino]-6-morpholin-4-yl-[1,3,5]triazin-2-yl}-amine]"
29,1 to 10 µM,"Cc1ccc(Nc2nc(N/N=C/c3ccccn3)nc(N3CCOCC3)n2)cc1 [Example 43, [4-Morpholin-4-yl-6-(N′-pyridin-2-ylmethylene-hydrazino)-[1,3,5]triazin-2-yl]-p-tolyl-amine]"
30,1 to 10 µM,"Cc1ccc(Nc2nc(N/N=C/c3cc4ccccc4[nH]3)nc(N3CCOCC3)n2)cc1 [Example 44, {4-[N′-(1H-Indol-2-ylmethylene)-hydrazino]-6-morpholin-4-yl-[1,3,5]triazin-2-yl}-p-tolyl-amine]"

row,Compound,EC50
1,"Cc1cccc(Nc2nc(N/N=C/c3c[nH]c4ccccc34)nc(N3CCOCC3)n2)c1 [Example 9, {4-[N′-(1H-Indol-3-ylmethylene)-hydrazino]-6-morpholin-4-yl-[1,3,5]triazin-2-yl}-m-tolyl-amine]",≤ 1 µM
2,"Fc1ccc(Nc2nc(N/N=C/c3c[nH]c4ccccc34)nc(N3CCOCC3)n2)cc1 [Example 10, (4-Fluoro-phenyl)-{4-[N′-(1H-indol-3-ylmethylene)-hydrazino]-6-morpholin-4-yl-[1,3,5]triazin-2-yl}-amine]",≤ 1 µM
3,"Cc1ccc(Nc2nc(NCCO)nc(N/N=C/c3c[nH]c4ccccc34)n2)cc1 [Example 13, 2-{4-[N′-(1H-Indol-3-ylmethylene)-hydrazino]-6-p-tolylamino-[1,3,5]triazin-2-ylamino}-ethanol]",> 50 µM
4,"CN(C)c1ccc(Nc2nc(N/N=C/c3c[nH]c4ccccc34)nc(N3CCOCC3)n2)cc1 [Example 34, (E)-N1-(4-(2-((1H-indol-3-yl)methylene)hydrazinyl)-6-morpholino-1,3,5-triazin-2-yl)-N4,N4-dimethylbenzene-1,4-diamine]",≤ 1 µM
5,Cc1ccc(Nc2cc(N/N=C/c3c[nH]c4ccccc34)nc(N3CCOCC3)n2)cc1 [Example 39],1 to 10 µM
6,"Cc1ccc(Nc2cc(-n3ncc4c5ccccc5[nH]c43)nc(N3CCOCC3)n2)cc1 [Example 40, [2-morpholin-4-yl-6-(8H-pyrazolo[3,4-b]indol-1-yl)-pyrimidin-4-yl]-p-tolyl-amine]",10 to 50 µM
7,"Cc1ccc(Nc2cc(N3CCOCC3)nc(N/N=C/c3c[nH]c4ccccc34)n2)cc1 [Example 41, {2-[N′-(1H-indol-3-ylmethylene)-hydrazino]-6-morpholin-4-yl-pyrimidin-4-yl}-p-tolyl-amine]",1 to 10 µM
